Source: ChEMBL document CHEMBL4823282, “Novel Broad-Spectrum Antimicrobial Peptide Derived from Anoplin and Its Activity on Bacterial Pneumonia in Mice” (J Med Chem, 2021)
Converted amounts (≈) assume the structure as drawn. Where a SMILES comes first, the peptide text is derived from it. Bridges are numbered along the chain shown (N, C = ends). [ ]: non-standard residue; d: D form. The star is where a group is joined. Ileψ(thiazoline)Cys = CC[C@H](C)[C@H](N)C1=N[C@H](C(=O)*)CS1; dOrn = NCCC[C@@H](N)C(=O)O

How the values were obtained:
[1] = test system: Staphylococcus aureus; assay: Antibacterial activity against Staphylococcus aureus ATCC 25923 incubated for 18 hrs by CLSI based broth dilution method; format: functional
[2] = test system: Fungi; assay: Antibacterial activity against fungi incubated for 18 hrs by CLSI based broth dilution method; format: functional
[3] = test system: Bacteria; assay: Antibacterial activity against Gram-negative bacteria incubated for 18 hrs by CLSI based broth dilution method; format: functional
[4] = test system: Klebsiella pneumoniae; assay: Antibacterial activity against Klebsiella pneumoniae ATCC 700603 incubated for 18 hrs by CLSI based broth dilution method; format: functional
[5] = Selectivity ratio of MHC10 for BALB/C mouse erythrocytes to MIC for fungi; format: toxicity
[6] = test system: Bacteria; assay: Antibacterial activity against Gram-positive bacteria incubated for 18 hrs by CLSI based broth dilution method; format: functional
[7] = test system: Acinetobacter baumannii; assay: Antibacterial activity against Acinetobacter baumannii ATCC 19606 incubated for 18 hrs by CLSI based broth dilution method; format: functional; conditions: ATCC 19606 = CIP 70.34 = JCM 6841
[8] = Selectivity ratio of MHC10 for BALB/C mouse erythrocytes to MIC for bacteria; format: toxicity
[9] = Cytotoxicity against human glomerular mesangial cells incubated for 12 hrs by MTT assay; format: cell-based; conditions: Glomerular mesangial cell
[10] = Selectivity ratio of MHC10 for BALB/C mouse erythrocytes to MIC for gram positive bacteria; format: toxicity
[11] = test system: Escherichia coli; assay: Antibacterial activity against Escherichia coli ATCC 25922 incubated for 18 hrs by CLSI based broth dilution method; format: functional
[12] = test system: Erythrocyte; assay: Hemolytic activity in BALB/C mouse erythrocytes incubated for 1 hr by absorbance method; format: ADME, cell-based
[13] = test system: Bacteria; assay: Antibacterial activity against bacteria incubated for 18 hrs by CLSI based broth dilution method; format: functional
[14] = test system: Enterococcus faecalis; assay: Antibacterial activity against Enterococcus faecalis ATCC 29212 incubated for 18 hrs by CLSI based broth dilution method; format: functional
[15] = test system: Pseudomonas aeruginosa; assay: Antibacterial activity against Pseudomonas aeruginosa ATCC 27853 incubated for 18 hrs by CLSI based broth dilution method; format: functional
[16] = test system: Staphylococcus epidermidis; assay: Antibacterial activity against Staphylococcus epidermidis ATCC 12228 incubated for 18 hrs by CLSI based broth dilution method; format: functional
[17] = test system: Bacillus subtilis; assay: Antibacterial activity against Bacillus subtilis ATCC 23857 incubated for 18 hrs by CLSI based broth dilution method; format: functional
[18] = Selectivity ratio of MHC10 for BALB/C mouse erythrocytes to MIC for gram-negative bacteria; format: toxicity

Q: Which results are given for `C[C@H](NC(=O)[C@H](C)NC(=O)[C@@H](NC(=O)[C@H](CCCCN)NC(=O)[C@H](C)NC(=O)[C@H](CCCNC(=N)N)NC(=O)[C@H](CCCCN)NC(=O)[C@H](C)NC(=O)[C@H](C)NC(=O)CN)[C@@H](C)O)C(N)=O` (H-GAAKRAKTAA-NH2)?
A: MIC [1]: ≥ 512 µM; MIC [2]: ≥ 512 µM; MIC [3]: ≥ 512 µM; MIC [4]: ≥ 512 µM; selectivity ratio [5]: 1; MIC [6]: ≥ 512 µM; MIC [7]: ≥ 512 µM; selectivity ratio [8]: 1; IC50 [9]: ≥ 512 µM; selectivity ratio at 18 h [10]: 1; MIC [11]: ≥ 512 µM; MHC10 [12]: >= 512 uM; MIC [13]: ≥ 512 µM; MIC [14]: ≥ 512 µM; MIC [15]: ≥ 512 µM; MIC [16]: ≥ 512 µM; MIC [17]: ≥ 512 µM; selectivity ratio [18]: 1

Q: For `CC(C)C[C@H](NC(=O)[C@H](CC(C)C)NC(=O)[C@@H](NC(=O)[C@H](CCCCN)NC(=O)[C@H](Cc1ccccc1)NC(=O)[C@H](CCCNC(=N)N)NC(=O)[C@H](CCCCN)NC(=O)[C@H](CC(C)C)NC(=O)[C@H](CC(C)C)NC(=O)CN)[C@@H](C)O)C(N)=O` (H-GLLKRFKTLL-NH2), which MIC [1] is on record?
A: The MIC was 128 µM (≈ 152 µg/mL).

Q: And the MIC [2]?
A: Its MIC is 69.8 µM (≈ 82.9 µg/mL).

Q: What about the MIC [3] of the same compound?
A: Its MIC is 76.1 µM (≈ 90.4 µg/mL).

Q: And the MIC [4]?
A: The MIC was 128 µM (≈ 152 µg/mL).

Q: And the selectivity ratio [5]?
A: Its selectivity ratio is 7.34.

Q: And the MIC [6]?
A: The MIC was 64 µM (≈ 76 µg/mL).

Q: And the MIC [7]?
A: The MIC was 256 µM (≈ 304 µg/mL).

Q: And the selectivity ratio [8]?
A: The selectivity ratio was 7.34.

Q: And the IC50 [9]?
A: The IC50 was at least 512 µM.

Q: And the selectivity ratio at 18 h [10]?
A: The selectivity ratio at 18 h was 8.

Q: And the MIC [11]?
A: The MIC was 64 µM (≈ 76 µg/mL).

Q: And the MHC10 [12]?
A: Its MHC10 is “>= 512 uM”.

Q: What about the MIC [13] of the same compound?
A: The MIC was 69.8 µM (≈ 82.9 µg/mL).

Q: And the MIC [14]?
A: The MIC was 256 µM (≈ 304 µg/mL).

Q: And the MIC [15]?
A: The MIC was 64 µM (≈ 76 µg/mL).

Q: What about the MIC [16] of the same compound?
A: The MIC was 16 µM (≈ 19 µg/mL).

Q: And the MIC [17]?
A: Its MIC is 32 µM (≈ 38 µg/mL).

Q: What about the selectivity ratio [18] of the same compound?
A: The selectivity ratio was 6.73.

Q: Which results are given for `C[C@@H](O)[C@H]1C(=O)N2C(C(=O)O)=C(SCCNC=N)C[C@H]12` [IMIPENEM ANHYDROUS]?
A: MIC [1]: < 1 µM; MIC [4]: < 1 µM; MIC [7]: < 1 µM; MIC [11]: < 1 µM; MIC [14]: < 1 µM; MIC [15]: < 1 µM; MIC [16]: < 1 µM; MIC [17]: < 1 µM

Q: With `NC[C@H]1O[C@H](O[C@H]2[C@H](O)[C@@H](O[C@H]3O[C@H](CO)[C@@H](O)[C@H](N)[C@H]3O)[C@H](N)C[C@@H]2N)[C@H](O)[C@@H](O)[C@@H]1O` [KANAMYCIN] as the compound, how does the MIC [1] read?
A: Its MIC is under 1 µM.

Q: What about the MIC [4] of the same compound?
A: Its MIC is 32 µM (≈ 15.5 µg/mL).

Q: What about the MIC [7] of the same compound?
A: Its MIC is 4 µM (≈ 1.94 µg/mL).

Q: What about the MIC [11] of the same compound?
A: The MIC was 8 µM (≈ 3.88 µg/mL).

Q: What about the MIC [14] of the same compound?
A: Its MIC is 8 µM (≈ 3.88 µg/mL).

Q: And the MIC [15]?
A: Its MIC is 8 µM (≈ 3.88 µg/mL).

Q: And the MIC [16]?
A: The MIC was under 1 µM.

Q: And the MIC [17]?
A: Its MIC is under 1 µM.

Q: For `CC1(C)S[C@@H]2[C@H](NC(=O)Cc3ccccc3)C(=O)N2[C@H]1C(=O)O` [PENICILLIN G], which MIC [1] is on record?
A: Its MIC is under 1 µM.

Q: What about the MIC [4] of the same compound?
A: The MIC was at least 512 µM.

Q: What about the MIC [7] of the same compound?
A: The MIC was 128 µM (≈ 42.8 µg/mL).

Q: What about the MIC [11] of the same compound?
A: The MIC was 64 µM (≈ 21.4 µg/mL).

Q: And the MIC [14]?
A: The MIC was 4 µM (≈ 1.34 µg/mL).

Q: And the MIC [15]?
A: Its MIC is 64 µM (≈ 21.4 µg/mL).

Q: And the MIC [16]?
A: Its MIC is 16 µM (≈ 5.35 µg/mL).

Q: What about the MIC [17] of the same compound?
A: The MIC was under 1 µM.

Q: With `C[C@@H](O)[C@H]1C(=O)N2C(C(=O)O)=C(S[C@@H]3CN[C@H](C(=O)N(C)C)C3)[C@H](C)[C@H]12` [MEROPENEM] as the compound, how does the MIC [1] read?
A: The MIC was under 1 µM.

Q: And the MIC [4]?
A: Its MIC is under 1 µM.

Q: What about the MIC [7] of the same compound?
A: Its MIC is under 1 µM.

Q: And the MIC [11]?
A: Its MIC is under 1 µM.

Q: And the MIC [14]?
A: The MIC was 4 µM (≈ 1.53 µg/mL).

Q: What about the MIC [15] of the same compound?
A: Its MIC is under 1 µM.

Q: And the MIC [16]?
A: Its MIC is under 1 µM.

Q: What about the MIC [17] of the same compound?
A: Its MIC is under 1 µM.

Q: Which MIC [1] does the source give for `CC[C@H](C)[C@H](N)C1=N[C@H](C(=O)N[C@@H](CC(C)C)C(=O)N[C@H](CCC(=O)O)C(=O)N[C@H](C(=O)N[C@H]2CCCCNC(=O)[C@H](CC(N)=O)NC(=O)[C@@H](CC(=O)O)NC(=O)[C@H](Cc3cnc[nH]3)NC(=O)[C@@H](Cc3ccccc3)NC(=O)[C@H]([C@@H](C)CC)NC(=O)[C@@H](CCCN)NC2=O)[C@@H](C)CC)CS1` [BACITRACIN] ({Ileψ(thiazoline)Cys}-L[dE]IK[dOrn]I[dF]H[dD]N; lactam 4-C) here?
A: The MIC was 16 µM (≈ 22.8 µg/mL).

Q: And the MIC [4]?
A: The MIC was at least 512 µM.

Q: And the MIC [7]?
A: Its MIC is at least 128 µM.

Q: And the MIC [11]?
A: The MIC was at least 512 µM.

Q: What about the MIC [14] of the same compound?
A: The MIC was 32 µM (≈ 45.5 µg/mL).

Q: What about the MIC [15] of the same compound?
A: The MIC was at least 512 µM.

Q: What about the MIC [16] of the same compound?
A: Its MIC is 8 µM (≈ 11.4 µg/mL).

Q: And the MIC [17]?
A: The MIC was at least 512 µM.
